Series [1] deals with schistosomes. Details: method as in Guerra-Sa et al., 2005. As to conditions: treated mice; ref Guerra-Sa et al., 2005; cited from earlier work.
The target of series [2] is Sm5HTR (Schistosoma mansoni, UniProt G4V5G4). Nature of the series: cAMP luminescence (GloSensor) assay, HEK293 cells expressing Sm5HTR. Type of series: cell-based, S. mansoni. To be noted: compound incubation followed by 50 μM 5-HT.
Series [3] has as its system S. mansoni schistosomulae. Nature of the series: Motility assay on schistosomulae (pixel displacement, relative to DMSO control). As to conditions: for activity at 1 µM: Schistosoma mansoni, read-out: Fractional motility. Type of series: cell-based, Schistosoma mansoni. In short, it runs like this:
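Mechanically transformed S. mansoni schistosomulae (200/well) in Opti-MEM with 5% dialyzed FBS were exposed to compounds at 1 and 10 μM for 24 h at 37 °C, 5% CO2. Motility filmed at 10 frames/s for 1 min and quantified by pixel displacement relative to DMSO-treated controls.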

For series [4], the system named is S. mansoni schistosomulae. Nature of the series: Phenotypic primary screen assay on schistosomulae (phenotype; viability by methylene blue dye exclusion). The format is cell-based, Schistosoma mansoni. To be noted: three-day-old schistosomulae, 10 μM, 24 h; for Phenotype: estimated 5 days post compound exposure. A digest of the protocol:
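Parasites lacking contraction/relaxation cycles and showing dark internal granulations counted as dead. Movement and body shape were compared with DMSO-treated controls under a stereo microscope at 24 h and at five days of exposure. Larvae came from infected snails shed under light for 2 h at 32 °C.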

Series [5] concerns S. mansoni schistosomulae. Described as above. To be noted: Schistosoma mansoni; three-day-old schistosomulae, 10 μM, 24 h; calculated 5 days post compound exposure; read-out: Viability (%). Type of series: cell-based.
Series [6] has as its system naïve Glo HEK293 cells (no receptor). Nature of the series: cAMP luminescence (GloSensor) assay on naïve Glo HEK293 cells (no receptor). The format is cell-based, human. To be noted: 20 μM forskolin. As for the experimental part: The SmGPR2 sequence previously identified ([El-Shehabi and Ribeiro, 2010]) was codon optimized for mammalian expression and subcloned in the vector pCI-neo (Addgene, USA) using the XbaI and NotI restriction enzymes. A FLAG fusion tag ([…]) was introduced at the N-terminal end of the receptor sequence. Stable transfection of HEK293 cells (ATCC; CRL-1573) was performed using the X-tremeGENE 9 DNA transfection reagent (Sigma Aldrich). Cells were then cultured at 37 °C, 5% CO2 in Opti-MEM supplemented with 5% FBS and maintained in 400 μg/mL G418 (Sigma Aldrich) for selection of transformants. […] All cell lines expressing S. mansoni GPCRs were then transfected with the GloSensor encoding plasmid p22F (Promega) and media was supplemented with 100 μg/mL hygromycin for stable expression (ThermoFisher).
(§1) Adherent HEK293 cells were seeded at a density of 5 x 10^4 cells/well (96-well plate) in Opti-MEM without FBS or antibiotics and incubated overnight at 37 °C and 5% CO2 prior to the assay. In place of the media, 100 μL HBSS supplemented with 0.1% bovine serum albumin (BSA), 500 μM 3-isobutyl-1-methylxanthine (IBMX, Sigma Aldrich), 20 mM HEPES (pH 7.4) and 1 mg/mL D-luciferin (Goldbio) was added to each well. After a 2 h incubation period at room temperature, luminescence background was recorded, and compounds and control ligands were added at 10X concentration. Immediately after compound addition, luminescence was read over a 45 min period to detect compounds stimulating cAMP release through receptor activation. […] For each assay, luminescence responses were recorded in triplicate and repeated with four independant cell batches. Compounds were also added to naïve Glo HEK293 cells (no receptor) and the robustness of the assay was calculated as: Z^'=1−3×(SDmax+SDmin)/Meanmax−Meanmin with max and min referring respectively to cells expressing GPCRs and Glo (no receptor) cells. Cellular viability was assessed using a CellTiter Glo 2.0 kit (Promega). Glo cells were exposed to 10 μM of each hit compound for 3 h in Opti-MEM at 37 °C, 5% CO2. An equimolar concentration of tamoxifen (Sigma Aldrich) was used as a positive control. 2X cell lysis media was then added and end-point luminescence recorded after a 10 min stabilization time.

In series [7] the test system is S. mansoni adult worms. Nature of the series: Motility assay on adult parasites (pixel displacement, relative to DMSO control). Type of series: cell-based, Schistosoma mansoni. As to conditions: 10 μM; for Fractional motility: secondary screen. In short, it runs like this:
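Unpaired adult worms from mice 6 weeks post-infection kept in OPTI-MEM with 5% dialyzed FBS and exposed to compounds at 1 and 10 μM for 24 h. Motility filmed 1 min at 10 frames/s, quantified by pixel displacement versus DMSO-treated worms; recovery followed up to five days after washout.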

In series [8] the test system is Glo HEK293 cells. As to the kind of experiment: Cellular viability, CellTiter Glo 2.0. Type of series: cell-based, human. To be noted: 10 μM, 3 h. As for the experimental part:
as §1, with “An equimolar concentration of tamoxifen (Sigma Aldrich) was used as a positive control.” left out

Series [9] has as its system adult schistosomes. Details: method as in Neves et al., 2016. As to conditions: transient hyperactivity, ref Neves et al., 2016, cited from earlier work.
Series [10] deals with proteasome. Details: method as in Bibo-Verdugo et al., 2019. As to conditions: in vitro; ref Bibo-Verdugo et al., 2019; cited from earlier work.
Series [11] relates to schistosomes. More on the design: method as in Bibo-Verdugo et al., 2019. As to conditions: in vitro; ref Bibo-Verdugo et al., 2019; cited from earlier work.
In series [12] the test system is schistosomes. More on the design: method as in Marcellino et al., 2012. As to conditions: ref Marcellino et al., 2012; cited from earlier work.
The target in series [13] is SmGPR2 (Schistosoma mansoni, UniProt G4VIY8). As to the kind of experiment: cell-based. The method, then: The SmGPR2 sequence previously identified ([El-Shehabi and Ribeiro, 2010]) was codon optimized for mammalian expression and subcloned in the vector pCI-neo (Addgene, USA) using the XbaI and NotI restriction enzymes. A FLAG fusion tag ([…]) was introduced at the N-terminal end of the receptor sequence. Stable transfection of HEK293 cells (ATCC; CRL-1573) was performed using the X-tremeGENE 9 DNA transfection reagent (Sigma Aldrich). Cells were then cultured at 37 °C, 5% CO2 in Opti-MEM supplemented with 5% FBS and maintained in 400 μg/mL G418 (Sigma Aldrich) for selection of transformants. […]
Adherent HEK293 cells were seeded at a density of 5 x 10^4 cells/well (96-well plate) in Opti-MEM without FBS or antibiotics and incubated overnight at 37 °C and 5% CO2 prior to the assay. […] After a 2 h incubation period at room temperature, luminescence background was recorded, and compounds and control ligands were added at 10X concentration. Immediately after compound addition, luminescence was read over a 45 min period to detect compounds stimulating cAMP release through receptor activation. […] For each assay, luminescence responses were recorded in triplicate and repeated with four independant cell batches. […] Cellular viability was assessed using a CellTiter Glo 2.0 kit (Promega). […] 2X cell lysis media was then added and end-point luminescence recorded after a 10 min stabilization time.

[14] abbreviates: schistosomulae, secondary screen, 24h exposure, read at D1, 1 µM.
The mark [15] stands for this setting: schistosomulae, 1h exposure, read at D1, 10 µM.
[16] abbreviates: schistosomulae, 1h exposure, read at D5, 10 µM.
Setting [17] is: schistosomulae, 3h exposure, read at D1, 10 µM.
Where [18] appears, read: schistosomulae, 3h exposure, read at D5, 10 µM.
[19] abbreviates: schistosomulae, 6h exposure, read at D1, 10 µM.
Setting [20] is: schistosomulae, 6h exposure, read at D5, 10 µM.
The mark [21] stands for this setting: schistosomulae, secondary screen, 24h exposure, read at D1, 10 µM.
The mark [22] stands for this setting: schistosomulae, secondary screen, 24h exposure, read at D5, 10 µM.

The structures appear in SMILES notation. Where two headings read alike, the source gives them in different places. Residues, ends and D or L forms follow the SMILES beside them. *: point of attachment. Cbz = O=C(OCc1ccccc1)*

Sm5HTR, sequence (G4V5G4 entry or part of it): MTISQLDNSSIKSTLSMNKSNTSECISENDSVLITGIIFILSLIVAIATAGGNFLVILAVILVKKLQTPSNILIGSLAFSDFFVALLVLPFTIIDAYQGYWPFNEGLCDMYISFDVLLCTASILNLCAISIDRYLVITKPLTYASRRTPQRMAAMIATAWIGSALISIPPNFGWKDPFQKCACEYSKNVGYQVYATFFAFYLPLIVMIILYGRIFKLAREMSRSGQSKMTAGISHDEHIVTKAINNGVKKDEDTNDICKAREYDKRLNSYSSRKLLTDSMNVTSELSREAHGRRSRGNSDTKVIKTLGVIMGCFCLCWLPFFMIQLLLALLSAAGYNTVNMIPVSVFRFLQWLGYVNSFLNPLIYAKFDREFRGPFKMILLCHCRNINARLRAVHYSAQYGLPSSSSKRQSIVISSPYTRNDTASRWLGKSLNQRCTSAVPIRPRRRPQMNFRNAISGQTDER
SmGPR2, sequence (G4VIY8 entry or part of it): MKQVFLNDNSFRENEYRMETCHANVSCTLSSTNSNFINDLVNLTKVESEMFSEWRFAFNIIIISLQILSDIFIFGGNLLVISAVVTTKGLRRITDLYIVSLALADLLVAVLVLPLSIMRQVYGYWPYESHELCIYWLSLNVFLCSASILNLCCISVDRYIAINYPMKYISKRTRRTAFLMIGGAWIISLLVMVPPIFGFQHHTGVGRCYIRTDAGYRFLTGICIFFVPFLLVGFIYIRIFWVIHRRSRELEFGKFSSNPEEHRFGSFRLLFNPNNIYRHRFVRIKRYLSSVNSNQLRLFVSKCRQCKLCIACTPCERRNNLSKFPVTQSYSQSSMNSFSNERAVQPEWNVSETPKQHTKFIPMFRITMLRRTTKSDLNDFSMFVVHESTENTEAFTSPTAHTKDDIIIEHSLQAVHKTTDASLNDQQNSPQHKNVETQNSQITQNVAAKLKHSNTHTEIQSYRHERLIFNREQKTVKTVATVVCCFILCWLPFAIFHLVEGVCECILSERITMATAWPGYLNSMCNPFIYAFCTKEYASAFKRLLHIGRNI

For `CC(C)C[C@@H](C=O)NC(=O)[C@H](CC(C)C)NC(=O)[C@H](CC(C)C)NC(=O)OCc1ccccc1` [MG-132] (Cbz-Leu-Leu-Leu-aldehyde), the “fewer parasites migrated to the lung compared to control animals” value in series [1] was 65%.

For the compound `O=[N+]([O-])C=Cc1ccc2c(c1)OCO2` [MNS, 3,4-methylenedioxy-β-nitrostyrene], in series [2], the “inhibition of Sm5HTR 5-HT-evoked signals” value is reported as ≥ 50%. Also, the activity at 1 µM in [3] (120 h, schistosomulae, secondary screen, 24h exposure, read at D5, 1 µM) stood at 103%; in [3] (setting [14]), 241%. In addition, the Fractional motility in series [3] (setting [15]) is reported as -0.95; in series [3] (setting [16]), -0.06; in [3] (setting [17]), -0.96; in [3] (setting [18]), -0.87; in [3] (setting [19]), -0.83; in series [3] (setting [20]), -0.87. In addition, the Fractional motility in series [3] (setting [21]) was 2.46; in series [3] (setting [22]) it was -0.0952; in [7] (D1, Female adult worms), -0.14; in series [7] (D1, Male adult worms) it was -0.40; in series [7] (D5, Female adult worms), -0.83; in series [7] (D5, Male adult worms), -0.55. Moreover, the Phenotype entry in series [4] is on record as “blebbing, dark, granulated”. For the same compound, in [5], the viability at 10 µM is 43%. In [6], the “effect on luminescence evoked by forskolin” value is “significant decrease in luminescence”.

Take `Cc1ccc(S(=O)(=O)c2ccc([N+](=O)[O-])o2)cc1` [NSC697923]: the “inhibition of Sm5HTR 5-HT-evoked signals” value in [2] is listed as ≥ 50%. The Fractional motility in [3] (setting [15]) was -0.93; in series [3] (setting [16]), -1.00; in [3] (setting [17]) it was -1.00; in series [3] (setting [18]), -0.99; in series [3] (setting [19]), -0.93; in series [3] (setting [20]), -0.99. The Fractional motility in series [3] (setting [14]) is given as -0.18; in [3] (setting [21]), 3.05; in series [3] (schistosomulae, secondary screen, 24h exposure, read at D5, 1 µM) it was -0.90; in series [3] (setting [22]) it was -1.00; in [7] (D1, Female adult worms), 0.25; in series [7] (D1, Male adult worms), 0.30. For the same compound, the Fractional motility in [7] (D5, Female adult worms) was -0.95; in series [7] (D5, Male adult worms) it was -0.78. The “Viability (%)” value in series [4] (calculated 5 days post compound exposure) is 0%. The Phenotype result in [4] was “dark, granulated”. For the same compound, the “reduction of ATP released by cells” value in series [8] amounted to 48.1 ± 5.7%. The “effect on luminescence evoked by forskolin” value in series [6] was “significant decrease in luminescence”. The “motility phenotype in words” value in series [7] (adults, long-term after washout) was “Significant hypomotility”.

Consider `Fc1ccc([C@@H]2CCNC[C@H]2COc2ccc3c(c2)OCO3)cc1` [Paroxetine], for which, in series [3] (120 h, Selleckchem customized library secondary screen, 24h, D5, 1 µM), the activity at 1 µM amounted to 256%. For the same compound, the Fractional motility in series [3] (Selleckchem customized library secondary screen, 24h, D1, 10 µM) is on record as 55.45; in series [3] (Selleckchem customized library secondary screen, 24h, D5, 10 µM) it was 1.54; in series [7] (D1, Female adult worms), 0.47; in [7] (D1, Male adult worms), 1.07; in [7] (D5, Female adult worms), -0.42; in series [7] (D5, Male adult worms), -0.49. The “motility phenotype in words” value in [3] (schistosomulae, after 24 h exposure) was “high levels of hypermotility”. Also, the Phenotype result in series [4] is “granulated”. The viability at 10 µM in series [5] is 90%. Moreover, the EC50 is 11.9 µM in [9] (female worms) and 2.7 µM in [9] (male worms).

On to `CC(C)C[C@H](NC(=O)[C@H](Cc1ccccc1)NC(=O)c1cnccn1)B(O)O` [bortezomib], for which the “reduction of proteasome activity” value in series [10] was > 75%. Moreover, the “reduction of worm motility” value in series [11] was > 85%. Further, the motility reduction in series [12] is recorded as > 90%.

Regarding `CC(C)C[C@H](NC(=O)[C@H](CCc1ccccc1)NC(=O)CN1CCOCC1)C(=O)N[C@@H](Cc1ccccc1)C(=O)N[C@@H](CC(C)C)C(=O)[C@@]1(C)CO1` [carfilzomib], the “reduction of proteasome activity” value in [10] is reported as > 75%. Further, the “reduction of worm motility” value in [11] was > 85%. For the same compound, in series [12], the motility reduction is > 90%.

`NCCc1c[nH]cn1` [histamine] displayed an EC50 in series [13] of 12.5 ± 1.5 µM.

Values taken from PMC7284125, “Identification of annotated bioactive molecules that impair motility of the blood fluke Schistosoma mansoni” (International Journal for Parasitology: Drugs and Drug …, 2020).
